Measured values from patent publication US20220177538A1, “CO-AGONISTS AT GLP-1 AND GIP RECEPTORS SUITABLE FOR ORAL DELIVERY” (Novo Nordisk A/S, priority 2020, published 2022).
Where two headings read alike, the source gives them in different places. Marks after values point to notes of the source that are not given here. Starred links: 1 amine or outer side, 2 acyl side, 3 side chain; linkers in the order of their positions; H or OH if unused. Non-standard residues stand in square brackets, D forms with d. Residues, ends and D or L forms follow the SMILES beside them. Groups on a side chain read outwards from the residue. *: point of attachment. C18 diacid = O=C(O)CCCCCCCCCCCCCCCCC(=O)*; γGlu = O=C(O)[C@H](CCC(=O)[*:2])N[*:1]; εLys = N[C@@H](CCCCN[*:1])C(=O)[*:2]; Aib = CC(C)(N)C(=O)O

Assay: Pharmacokinetic study in dogs after oral dosing of tablets with SNAC
Format: in vivo, Beagle dogs
Details: for Tmax / half-life: male
In short: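 Male beagle dogs (9-17 kg), fasted, received a single oral tablet with 100-300 mg SNAC and 3-4 mg test substance, groups of 6-8.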

[1] = oral tablet, SNAC 300 mg, test substance 3 mg, Beagle dogs, arithmetic mean

Row | SMILES | AUC/Dose (dog, in vivo, po) | Cmax/Dose (dog, in vivo, po) | Tmax (Beagle, dog, in vivo, po) | half-life (Beagle, dog, in vivo, po) | half-life (dog, in vivo, oral tablet, SNAC 300 mg, test substance 3 mg, Beagle dogs, harmonic mean, read-out: t1/2 (converted)) | Tmax (dog, in vivo, oral tablet, SNAC 300 mg, test substance 3 mg, Beagle dogs, median, read-out: Tmax) | AUC/Dose [1] | Cmax/Dose [1]
1 | CC[C@H](C)[C@H](NC(=O)[C@H](Cc1ccccc1)NC(=O)[C@H](CCC(=O)O)NC(=O)[C@H](CCCNC(=N)N)NC(=O)[C@H](C)NC(=O)[C@H](C)NC(=O)[C@H](CCC(N)=O)NC(=O)[C@H](CCCCNC(=O)[C@@H](N)CCCCNC(=O)[C@@H](N)CCCCNC(=O)CC[C@H](NC(=O)CCCCCCCCCCCCCCCCC(=O)O)C(=O)O)NC(=O)[C@H](CCC(=O)O)NC(=O)[C@H](CC(C)C)NC(=O)[C@H](CC(C)C)NC(=O)[C@@H](NC(=O)[C@H](CO)NC(=O)[C@H](Cc1ccc(O)cc1)NC(=O)[C@H](CC(=O)O)NC(=O)[C@H](CO)NC(=O)[C@@H](NC(=O)[C@H](Cc1ccccc1)NC(=O)[C@@H](NC(=O)CNC(=O)[C@H](CCC(=O)O)NC(=O)C(C)(C)NC(=O)[C@@H](N)Cc1ccc(O)cc1)[C@@H](C)O)[C@@H](C)O)[C@@H](C)CC)C(=O)N[C@@H](CCC(=O)O)C(=O)N[C@@H](Cc1c[nH]c2ccccc12)C(=O)N[C@@H](CC(C)C)C(=O)N[C@@H](CC(C)C)C(=O)N[C@@H](C)C(=O)NCC(=O)NCC(=O)N1CCC[C@H]1C(=O)N[C@@H](CO)C(=O)N[C@@H](CO)C(=O)NCC(=O)N[C@@H](C)C(=O)N1CCC[C@H]1C(=O)N1CCC[C@H]1C(=O)N1CCC[C@H]1C(=O)N[C@@H](CO)C(=O)O [Compound 31] (H-Y[Aib]EGTFTSDYSILLEK([εLys-εLys-γGlu-C18 diacid])QAAREFIEWLLAGGPSSGAPPPS-OH) | 17.9** kg * h/L | 0.35** kg/L | 1.3 h | 56 h | – | – | – | –
2 | CC[C@H](C)[C@H](NC(=O)[C@H](Cc1ccccc1)NC(=O)[C@H](CCC(=O)O)NC(=O)[C@H](CCC(N)=O)NC(=O)[C@H](C)NC(=O)[C@H](C)NC(=O)[C@H](CCC(N)=O)NC(=O)[C@H](CCCCNC(=O)[C@@H](N)CCCCNC(=O)[C@@H](N)CCCCNC(=O)CC[C@H](NC(=O)CCCCCCCCCCCCCCCCC(=O)O)C(=O)O)NC(=O)[C@H](CCC(=O)O)NC(=O)[C@H](CC(C)C)NC(=O)[C@H](CC(C)C)NC(=O)[C@@H](NC(=O)[C@H](CO)NC(=O)[C@H](Cc1ccc(O)cc1)NC(=O)[C@H](CC(=O)O)NC(=O)[C@H](CO)NC(=O)[C@@H](NC(=O)[C@H](Cc1ccccc1)NC(=O)[C@@H](NC(=O)CNC(=O)[C@H](CCC(=O)O)NC(=O)C(C)(C)NC(=O)[C@@H](N)Cc1ccc(O)cc1)[C@@H](C)O)[C@@H](C)O)[C@@H](C)CC)C(=O)N[C@@H](CCC(=O)O)C(=O)N[C@@H](Cc1c[nH]c2ccccc12)C(=O)N[C@@H](CC(C)C)C(=O)N[C@@H](CC(C)C)C(=O)N[C@@H](C)C(=O)NCC(=O)NCC(=O)N1CCC[C@H]1C(=O)N[C@@H](CO)C(=O)N[C@@H](CO)C(=O)NCC(=O)N[C@@H](C)C(=O)N1CCC[C@H]1C(=O)N1CCC[C@H]1C(=O)N1CCC[C@H]1C(=O)N[C@@H](CO)C(=O)O [Compound 29] (H-Y[Aib]EGTFTSDYSILLEK([εLys-εLys-γGlu-C18 diacid])QAAQEFIEWLLAGGPSSGAPPPS-OH) | 16.6** kg * h/L | 0.26** kg/L | 1.2 h | 69 h | – | – | – | –
3 | CC[C@H](C)[C@H](NC(=O)[C@H](Cc1ccccc1)NC(=O)[C@H](CCC(=O)O)NC(=O)[C@H](CCCNC(=N)N)NC(=O)[C@H](C)NC(=O)[C@H](C)NC(=O)[C@H](CCC(N)=O)NC(=O)[C@H](CCCCNC(=O)[C@@H](N)CCCCNC(=O)[C@@H](N)CCCCNC(=O)CC[C@H](NC(=O)CCCCCCCCCCCCCCCCC(=O)O)C(=O)O)NC(=O)[C@H](CCC(=O)O)NC(=O)[C@H](CC(C)C)NC(=O)[C@H](CC(C)C)NC(=O)[C@@H](NC(=O)[C@H](CO)NC(=O)[C@H](Cc1ccc(O)cc1)NC(=O)[C@H](CC(=O)O)NC(=O)[C@H](CO)NC(=O)[C@@H](NC(=O)[C@H](Cc1ccccc1)NC(=O)[C@@H](NC(=O)CNC(=O)[C@H](CCC(=O)O)NC(=O)C(C)(C)NC(=O)[C@@H](N)Cc1ccc(O)cc1)[C@@H](C)O)[C@@H](C)O)[C@@H](C)CC)C(=O)N[C@@H](CCC(=O)O)C(=O)N[C@@H](Cc1c[nH]c2ccccc12)C(=O)N[C@@H](CC(C)C)C(=O)N[C@@H](CC(C)C)C(=O)N[C@@H](CCCNC(=N)N)C(=O)NCC(=O)NCC(=O)N1CCC[C@H]1C(=O)N[C@@H](CCC(=O)O)C(=O)N[C@@H](CO)C(=O)NCC(=O)N[C@@H](C)C(=O)N1CCC[C@H]1C(=O)N1CCC[C@H]1C(=O)N1CCC[C@H]1C(=O)N[C@@H](CO)C(=O)O [Compound 28] (H-Y[Aib]EGTFTSDYSILLEK([εLys-εLys-γGlu-C18 diacid])QAAREFIEWLLRGGPESGAPPPS-OH) | – | – | – | – | 67 h | 1.3 h | 18.6** kg * h/L | 0.36** kg/L
